Laboratory results taken from patent US20250268921A1, “OPTHALMIC FORMULATIONS AND USES THEREOF” (TelomEYE Pharmaceutical Corporation, priority 2018, published 2025).
“Also recorded” adds a separate entry of the source.

What was measured:
[1] = test system: human corneal epithelial cells; test: Morphologic evaluation and cell viability, cornea epithelial cells; format: cell-based
[2] = Rabbit ocular pharmacokinetic model; format: in vivo
Procedure: At the end of the fifth day, blood, tear, cornea, anterior chamber fluid, iris and lens tissues were collected at 30, 60, 120, 240 and 480 minutes following the last administration of 4 μg/50 μl. […] According to the results of the drug analysis at the 30th minute, the highest drug concentrations of 215.56 ng in the corneal tissue, 4 ng in the anterior chamber and 14.12 ng in the iris were detected individually, proving that the drug passes into the corneal tissue after application to the corneal surface and reaches the intraocular tissues.

[3] = test system: cornea endothelial cells; test: Specular microscopy cornea endothelial cell count, TAED017 eye drops 6 months; format: in vivo, rabbit; conditions: for cell count, treatment vs control: 2nd and 5th months
Text: 16-month-old male New Zealand rabbits were used in the study. […] When determining the starting age of rabbits and the duration of eye drop application (6 months), 16 months was chosen to correspond to adult human age, and the study period of 6 months was modeled as the period in which New Zealand rabbits aged 7.91 years (22.75 days for adult New Zealand rabbits, corresponding to 1 year for human age).
In FIGS. 12-15, data are shown as mean±standard error. The statistical evaluations are based on CD (cornea endothelia cell density) values. All CD values were corrected to the baseline measurement (month 0) of the respective rabbit and this correction was made as a percentage [(CD value/CD baseline value)*100]. GraphPad Prism 8.0.2 software was used for all statistical analyses and visualizations. The treatment of the rabbits at the respective dose was compared between the left (TAED017 treatment) and right (non-treated control) eye, both temporally and time and side dependent. For all analyses, “2-way ANOVA test for repeated measures” was used. For data sets with missing data, this analysis was set as “mixed-effect analysis” by the program. “Tukey” and “sidak” tests were used for posthoc analyses. The p values for these tests are adjusted p values.

[4] = test system: telomerase reverse transcriptase (TERT); test: TERT immunohistochemistry of eye tissues; format: in vivo, rabbit
Text: This was characterized by weak telomerase activity in the endothelial layer with an expression of limited number of endothelial cells.

[5] = test system: human corneal endothelial cells; test: Morphologic evaluation and cell viability, cornea endothelial cells; format: cell-based
Procedure: In the morphologic evaluation, the cells at different time periods (1 h, 4 h, 24 h) were observed following different concentrations of drug administration.

[6] = target: T1, telomerase (Homo sapiens, UniProt O14746); test: Telomerase activity of cornea endothelial and epithelial cells; format: cell-based
T1 construct: telomerase activity was evaluated in cornea endothelial cell HCEC-B4G12; endogenous in cells; host or cells: HCEC-B4G12 (DSMZ ACC 647)
T1 sequence (O14746 whole entry): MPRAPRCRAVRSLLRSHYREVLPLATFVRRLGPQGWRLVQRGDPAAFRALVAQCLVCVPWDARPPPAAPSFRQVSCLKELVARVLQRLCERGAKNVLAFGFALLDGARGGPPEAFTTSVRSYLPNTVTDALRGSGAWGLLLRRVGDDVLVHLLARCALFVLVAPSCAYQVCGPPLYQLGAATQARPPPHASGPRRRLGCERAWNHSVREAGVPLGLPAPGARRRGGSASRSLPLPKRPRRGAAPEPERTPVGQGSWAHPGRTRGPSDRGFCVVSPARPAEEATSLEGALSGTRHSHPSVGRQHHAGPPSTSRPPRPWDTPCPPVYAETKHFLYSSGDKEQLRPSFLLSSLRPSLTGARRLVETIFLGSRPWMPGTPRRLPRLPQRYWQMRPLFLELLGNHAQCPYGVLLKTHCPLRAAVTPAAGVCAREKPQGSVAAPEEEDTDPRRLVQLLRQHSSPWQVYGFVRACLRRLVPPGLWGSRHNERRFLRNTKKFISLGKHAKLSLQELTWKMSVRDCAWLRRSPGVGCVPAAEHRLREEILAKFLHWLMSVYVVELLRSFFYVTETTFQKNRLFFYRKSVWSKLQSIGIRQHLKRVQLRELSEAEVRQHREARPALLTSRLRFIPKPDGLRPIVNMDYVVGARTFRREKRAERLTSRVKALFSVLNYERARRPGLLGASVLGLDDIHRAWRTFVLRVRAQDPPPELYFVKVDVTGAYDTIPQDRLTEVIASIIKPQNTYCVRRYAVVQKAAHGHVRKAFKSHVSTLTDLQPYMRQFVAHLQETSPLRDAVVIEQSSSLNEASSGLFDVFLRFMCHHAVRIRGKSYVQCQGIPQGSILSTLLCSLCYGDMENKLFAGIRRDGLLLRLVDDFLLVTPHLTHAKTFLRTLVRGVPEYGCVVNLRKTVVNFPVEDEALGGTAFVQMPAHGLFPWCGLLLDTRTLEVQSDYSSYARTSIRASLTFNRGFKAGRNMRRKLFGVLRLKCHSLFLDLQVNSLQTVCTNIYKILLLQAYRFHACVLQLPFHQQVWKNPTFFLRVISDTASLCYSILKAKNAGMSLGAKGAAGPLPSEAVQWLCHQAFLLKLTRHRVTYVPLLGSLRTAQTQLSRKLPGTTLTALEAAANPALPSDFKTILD

[7] = test system: 3D organotypic corneal barrier; test: 3D organotypic corneal barrier passage (LC-MS/MS); format: in vitro ADME; conditions: repeated drug administration
[8] = test system: telomere length in Corneal Endothelial Cells (CEC); test: Telomere length of corneal endothelial cells, treated versus untreated eyes; format: in vivo, rabbit; conditions: six months treatment
Procedure: IG. 18 illustrates a graph showing percentage of telomere length increases in treated eyes (L) versus control (untreated eyes, R), with increasing dosages of telomerase activator. […] (Cy3=Fluorescence signal of telomere probe, Hoescht=fluorescence of the nuclei, Average R=Average of the control eye).
To determine the mechanism by which treatment with TAED017 prevents Corneal Endothelial Cell (CEC) attrition, telomere lengths from CECs of both treated and untreated eyes were measured and compared.
We then evaluated whether the observed effect of telomere lengthening in CECs also occurred in other ocular tissues. Rabbit eyes were treated for six months with TAED017, (one eye of each rabbit was treated while the other eye remained untreated, as a control group).

[9] = cornea endothelial and epithelial cells, 48 hours

CC(C)(O)[C@@H]1CC[C@](C)([C@H]2[C@@H](O)C[C@@]3(C)[C@@H]4C[C@H](O)[C@H]5C(C)(C)[C@@H](O)CC[C@@]56C[C@@]46CC[C@]23C)O1 [TAED017, Cycloastragenol]
concentration of first degenerative changes ([1]; after 24 hours): 320 µM
IC50 ([1]; cornea epithelial cells, read-out: IC50 dose (cell viability assays)): 740 µM
concentrations without morphological degenerative changes (safe) ([1]; epithelial cells): ≤ 160 μM
Tmax, all eye tissues ([2]; 4 μg/50 μl twice a day 5 days, after last administration): 30 min
drug concentration in tears ([2]; 30 and 60 minutes): ≤ 3 ng
highest drug concentration, anterior chamber ([2]; 30th minute, 4 μg/50 μl): 4 ng
highest drug concentration, corneal tissue ([2]; 30th minute, 4 μg/50 μl): 215.56 ng
highest drug concentration, iris ([2]; 30th minute, 4 μg/50 μl): 14.12 ng
highest level of drug absorbed to the corneal surface ([2]; proportion of applied drug): 5.39%
proportion of the drug that passed into the eye, iris tissue ([2]; proportion of applied drug): 0.35%
cell count, difference between months in the treated eye ([3]; 4 μg/50 μl): no significant difference between the times
cell count, overall comparison treated left vs untreated right eye ([3]; 4 μg/50 μl twice a day, two way ANOVA): no statistically significant difference
cell count, treatment vs control ([3]; 4 μg/50 μl): no statistically significant difference
cell count, treatment vs control ([3]; 8 μg/50 μl): no difference
cell count, overall comparison treated left vs untreated right eye ([3]; 8 μg/50 μl, mixed-effects analysis): statistically significant difference
cell count, difference between months in the treated eye ([3]; 12 μg/50 μl): statistically significant difference between the 2nd and 6th month
cell count, treatment vs control ([3]; 12 μg/50 μl): no difference
cell count, overall comparison treated left vs untreated right eye ([3]; 12 μg/50 μl, mixed-effects analysis): statistically significant difference
TERT immunoreactivity in cornea and iris, rank among dose groups ([4]; 80 μg/ml): lowest Tert immunoreactivity; also recorded: lowest levels
TERT immunostaining in the ciliary processes of iris tissue ([4]; 80 μg/ml): Prominent and dense tert antigen immunostaining
TERT staining in corneal endothelial cells ([4]; 160 μg and 240 μg/ml): continuous layer staining
TERT immunostaining in the ciliar processes ([4]; 160 μg/ml and 240 μg/ml): diffuse and very intense immunopositivity
TERT immunoreactivity in cornea and iris, rank among dose groups ([4]; 240 μg/ml): highest reactivity; also recorded: highest levels
TERT expression in cornea and iris, treated left eyes vs untreated ([4]; 80-240 μg/ml eye drops): significantly higher expression; also recorded: significantly elevated
TERT activity in the iris and choroidea vs untreated ([4]; treatment groups): significantly higher
morphologic change ([5]; 40 μM and 80 μM, up to 24 hours): no significant changes
apoptotic cells in 20× microscope field ([5]; 320 μM, 640 μM and 960 μM, after 1 h and 4 h): 1-5
morphologic change ([5]; 320 μM, 640 μM and 960 μM, as early as 5 minutes): cell-cell connections were disrupted and the cells became round
IC50 ([5]; cornea endothelial cells, read-out: IC50 dose (cell viability assays)): 220 µM
doses that appear safe ([5]; corneal endothelial cells, in vitro): ≤ 80 µM
cell damage ([5]; doses above 80 μM, prolonged drug exposure): significant apoptosis and lysis
apoptosis in HCECs ([5]; high concentrations (e.g. 160 μM and 320 μM)): significantly induces apoptosis
concentrations at which telomerase activity reached its highest level [6, 9]: 20 μM, 40 μM and 100 μM
starting concentration of telomerase activity increase [6, 9]: 2 µM
telomerase activity after 100 μM concentration [6, 9]: no higher telomerase activity
TAED017 activity, epithelial versus endothelial cells ([6]; human corneal epithelial cells vs HCEC B4-G12): higher in corneal epithelial cells
starting concentration of telomerase activity increase ([6]; printed in brackets after 2 μM): 100 ng/mL
amount crossing the corneal barrier, highest ([7]; 48th hour): 1.35%
amount crossing the corneal barrier, highest ([7]; 72nd hour): 1.89%
CEC telomere length, treated vs untreated eyes [8]: significant increase; also recorded: longer than those from untreated eyes
